Results taken from patent US20220195384A1, “COMPOSITION FOR PROMOTING PRODUCTION OF STEM CELL-DERIVED EXOSOMES AND INCREASING STEMNESS” (BREXOGEN INC., priority 2019, published 2022).

System: primary umbilical cord-derived mesenchymal stem cells
Assay: Stem cell stemness: colony formation (CFU-F, crystal violet) after pretreatment
Assay type: cell-based
Settings: 10 ng/mL interferon-γ pretreatment one week
Method: (§1) In a culture medium [high glucose DMEM (Gibco, Cat no. 11995-065); 10% fetal bovine serum (HyClone), 1% MEM non-essential amino acids solution (100×) (Gibco, Cat no. 11140-050)] containing 20 nM of exendin-4, primary umbilical cord-derived mesenchymal stem cells (ATCC No. PCS-500-010; Lot No. 63822428) were cultured for one week.
as §1, with “10” for “20”, “PMA,” for “exendin-4,”
as §1, with “10 ng/mL interferon-γ,” for “20 nM of exendin-4,”
as §1, with “10 μM” for “20 nM”, “tetrandrine,” for “exendin-4,”
as §1, with “10 μg/mL hyaluronic acid,” for “20 nM of exendin-4,”
as §1, with “30” for “20”, “substance P,” for “exendin-4,”
as §1, with “10” for “20”, “resveratrol,” for “exendin-4,”
as §1, with “10 μM” for “20 nM”, “lanifibranor,” for “exendin-4,”
Mesenchymal stem cells and the exendin-4-pretreated mesenchymal stem cells of the Example were each seeded at a density of 1,000 cells/dish into 100-mm cell culture dishes containing […] of a culture medium [high glucose DMEM (Gibco, Cat no. 11995-065), 10% fetal bovine serum (HyClone), 1% MEM non-essential amino acids solution (100×) (Gibco, Cat no. 11140-050)] per dish and cultured for 21 days. The cell-attached dishes were washed twice with PBS, followed by fixation with 95% methanol at room temperature for about 2 min. The fixed cells were washed three times with PBS and stained with 0.5% crystal violet [(sigma, C-3886, USA) […], methanol 100 ml] for 5 min. After water washing and drying at room temperature, colonies, each composed of 50 or more cells, were counted for comparison.
Mesenchymal stem cells and the PMA-pretreated mesenchymal stem cells of the Example were each seeded at a density of 1,000 cells/dish into 100-mm cell culture dishes containing […] of a culture medium [high glucose DMEM (Gibco, Cat no. 11995-065), 10% fetal bovine serum (HyClone), 1% MEM non-essential amino acids solution (100×) (Gibco, Cat no. 11140-050)] per dish and cultured for 21 days. The cell-attached dishes were washed twice with PBS, followed by fixation with 95% methanol at room temperature for about 2 min. […]

In the case of “interferon-γ [IFNγ MSC-Exo = exosomes of IFNγ-treated mesenchymal stem cells]”, the “colonies formed (each 50 or more cells)” value (1,000 cells/dish, 21 days, non-treated 28.6) is reported as 136 colonies and the CFU-F increase (vs non-treated) is reported as “about 476%”.
